According to US20240150340A1, “CDK Inhibitors And Their Use As Pharmaceuticals” (Prelude Therapeutics Incorporated, priority 2022, published 2024):

Columns and labels:
OVCAR3 p-RB = assay: pRB ICW Assay in OVCAR3 Cells; assay type: cell-based; details: Homo sapiens, OVCAR-3, incubated with compound for 2 hours
Protocol: pRB ICW Assay in OVCAR3 Cells
OVCAR3 cells were maintained in RPMI (Corning, Catalog #: 10-040-CV) supplemented with 10% v/v FBS (Gibco, Catalog #: 26140-079), 1% v/v Penicillin Streptomycin (Gibco, Catalog #15140-122.) OVCAR3 cells grown at log phase were trypsinized, counted, and resuspended in fresh medium to reach a final density of 6.7e4 cells/mL and 75 μL of culture were dispensed into a 384-well plate (Falcon, cat #353962) using a Multidrop Combi dispenser (Thermo Scientific). The next day, compounds were dispensed as a 9-point, ½ log serial dilution using a Tecan digital dispenser (D300e), and cells were incubated with compound for 2 hours in a humidified incubator at 37° C. A reference compound at a final concentration of 10 μM was used as a control for maximum inhibition. Each compound was tested in duplicate for each experiment. At the end of the incubation, […] (Electron Microscopy, cat #15710) was slowly added to each well and the plate was incubated at room temperature (RT) for 30 minutes to fix cells. Cells were then permeabilized by incubating with 50 μL/well of wash buffer (1×PBS with 0.1% Triton X-100) 5×5 minutes, followed by 1 hour blocking with 30 μL/well of Odyssey blocking buffer (Li-COR, cat #927-40000), at RT. Anti-phosphor RB antibody (Cell signaling 8516S) was diluted 1:1000 in Odyssey blocking buffer and 20 μL was added to all wells and incubated overnight in 4° C. with gently rocking. The next day, cells were washed 5×5 min with 50 μL/well of wash buffer, followed with 1 hour incubation with secondary antibody and DRAQ5 diluted in Odyssey blocking buffer (1:500 dilution for secondary antibody and 1:2000 dilution for DRAQ5), 5×5 min washes, and one last wash with water. Plates were dried in 37° C. oven for 5 minutes and scanned using Li-COR Odyssey CLx imaging system to acquire intensities at 700 and 800 nm channels.

CDK2/Cyclin E2 = target: T1, CDK2/Cyclin E2 (Homo sapiens, UniProt P24941); assay: CDK2/CyclinE2 Enzymatic Activity Assay (TR-FRET); assay type: biochemical; details: ATP 1 mM final, read-out: CDK2_E1 IC50
T1 construct: Recombinant protein complex CDK2/Cyclin E2, expressed from insect cell, was purchased from ProQinase
Protocol: CDK2/CyclinE2 Enzymatic Activity Assay
The inhibitory activity of compounds was evaluated in vitro using TR-FRET assay with white 384-well low volume microplate (Greiner Bio-One). CDK2/Cyclin E2 catalyzed phosphorylation of peptide in the presence and absence of compounds was measured and used in IC50 determination. Recombinant protein complex CDK2/Cyclin E2, expressed from insect cell, was purchased from ProQinase. Testing compounds were dissolved in DMSO at 1 mM and tested in 9-dose IC50 mode. The reaction mixture was prepared by mixing CDK2/CyclinE2 (1 nM final), ULight-4E-BP1 (50 nM final, Perkinelmer, TRF0128-D), and ATP (1 mM final) in assay buffer (20 mM of HEPES pH 7.4, 1 mM of EGTA, 0.05% BSA, 0.005% Tween 20, and 1 mM TCEP). The compound of interest in DMSO was added to each well in 3-fold serial dilution by dispenser (TECAN D300E) to make a 9.9 μL of reaction mixture. After 20 minutes preincubation at room temperature, 0.1 μL MgCl2 (10 mM final) was added to initiate the reaction. Following a 45 minute incubation at 37° C., the reaction was stopped by addition of 2 μL of quenching buffer consisting of Lance detection buffer (Perkinelmer CR97-100C), LANCE Ultra Europium-anti-P-4E-BP1 (Perkinelmer, TRF0216-D), EDTA, and incubated at room temperature for additional 60 minutes in the dark. The reaction signal was measured by Envision multimode plate reader (PerkinElmer, 2102-0010). IC50 values were determined by fitting the data to the standard 4 parameters with Hill Slope using GraphPad Prism software.

## C[C@@H]1CN(S(=O)(=O)c2c[nH]cn2)CC[C@@H]1Nc1ncc(C(F)(F)F)c(-c2cc(C#N)c(C(C)(C)O)s2)n1 [Example 120, 5-(2-(((3R,4S)-1-((1H-imidazol-4-yl)sulfonyl)-3-methylpiperidin-4-yl)amino)-5-(trifluoromethyl)pyrimidin-4-yl)-2-(2-hydroxypropan-2-yl)thiophene-3-carbonitrile]
OVCAR3 p-RB
  IC50: ≤ 100 nM
CDK2/Cyclin E2
  IC50: ≤ 100 nM

## C[C@@H]1CN(S(=O)(=O)c2cn(C)cn2)CC[C@@H]1Nc1ncc(C(F)(F)F)c(-c2cc(C#N)c(C(C)(C)O)s2)n1 [Example 121, 2-(2-hydroxypropan-2-yl)-5-(2-(((3R,4S)-3-methyl-1-((1-methyl-1H-imidazol-4-yl)sulfonyl)piperidin-4-yl)amino)-5-(trifluoromethyl)pyrimidin-4-yl)thiophene-3-carbonitrile]
OVCAR3 p-RB
  IC50: 100 to 500 nM
CDK2/Cyclin E2
  IC50: ≤ 100 nM

## CS(=O)(=O)N1CCC(Nc2ncc(C(F)(F)F)c(-c3cc(C#N)c(C(O)C(F)(F)F)s3)n2)CC1 (stereo not drawn) [Example 122, 5-(2-((1-(methylsulfonyl)piperidin-4-yl)amino)-5-(trifluoromethyl)pyrimidin-4-yl)-2-(2,2,2-trifluoro-1-hydroxyethyl)thiophene-3-carbonitrile]
OVCAR3 p-RB
  IC50: ≤ 100 nM
CDK2/Cyclin E2
  IC50: ≤ 100 nM

## C[C@@H]1CN(S(=O)(=O)c2cnn(C)c2)CC[C@@H]1Nc1ncc(C(F)(F)F)c(-c2cc(C#N)c(C(O)C(F)(F)F)s2)n1 (stereo partly drawn) [Example 123, 5-(2-(((3R,4S)-3-methyl-1-((1-methyl-1H-pyrazol-4-yl)sulfonyl)piperidin-4-yl)amino)-5-(trifluoromethyl)pyrimidin-4-yl)-2-(2,2,2-trifluoro-1-hydroxyethyl)thiophene-3-carbonitrile]
OVCAR3 p-RB
  IC50: ≤ 100 nM
CDK2/Cyclin E2
  IC50: ≤ 100 nM

## CC(C)(O)Cc1sc(-c2nc(NC3CCN(S(C)(=O)=O)CC3)ncc2C(F)(F)F)cc1C#N [Example 124, 2-(2-hydroxy-2-methylpropyl)-5-(2-((1-(methylsulfonyl)piperidin-4-yl)amino)-5-(trifluoromethyl)pyrimidin-4-yl)thiophene-3-carbonitrile]
OVCAR3 p-RB
  IC50: ≤ 100 nM
CDK2/Cyclin E2
  IC50: ≤ 100 nM

## Cn1cc(S(=O)(=O)N2CCC(Nc3ncc(C(F)(F)F)c(-c4cc(C#N)c(CC(C)(C)O)s4)n3)CC2)cn1 [Example 125, 2-(2-hydroxy-2-methylpropyl)-5-(2-((1-((1-methyl-1H-pyrazol-4-yl)sulfonyl)piperidin-4-yl)amino)-5-(trifluoromethyl)pyrimidin-4-yl)thiophene-3-carbonitrile]
OVCAR3 p-RB
  IC50: 100 to 500 nM
CDK2/Cyclin E2
  IC50: ≤ 100 nM

## Cn1cc(S(=O)(=O)N2CC[C@@H](Nc3ncc(C(F)(F)F)c(-c4cc(C#N)c(CC(C)(C)O)s4)n3)[C@H](F)C2)cn1 [Example 126, 5-(2-(((3R,4R)-3-fluoro-1-((1-methyl-1H-pyrazol-4-yl)sulfonyl)piperidin-4-yl)amino)-5-(trifluoromethyl)pyrimidin-4-yl)-2-(2-hydroxy-2-methylpropyl)thiophene-3-carbonitrile]
OVCAR3 p-RB
  IC50: ≤ 100 nM
CDK2/Cyclin E2
  IC50: ≤ 100 nM

## Cn1cnc(S(=O)(=O)N2CC[C@@H](Nc3ncc(C(F)(F)F)c(-c4cc(C#N)c(CC(C)(C)O)s4)n3)[C@H](F)C2)c1 [Example 127, 5-(2-(((3R,4R)-3-fluoro-1-((1-methyl-1H-imidazol-4-yl)sulfonyl)piperidin-4-yl)amino)-5-(trifluoromethyl)pyrimidin-4-yl)-2-(2-hydroxy-2-methylpropyl)thiophene-3-carbonitrile]
OVCAR3 p-RB
  IC50: ≤ 100 nM
CDK2/Cyclin E2
  IC50: ≤ 100 nM

## Cn1cc(S(=O)(=O)N2CC[C@@H](Nc3ncc(C(F)(F)F)c(-c4cc(C(N)=O)ns4)n3)[C@H](F)C2)cn1 [Example 128, 5-(2-(((3R,4R)-3-fluoro-1-((1-methyl-1H-pyrazol-4-yl)sulfonyl)piperidin-4-yl)amino)-5-(trifluoromethyl)pyrimidin-4-yl)isothiazole-3-carboxamide]
OVCAR3 p-RB
  IC50: ≤ 100 nM
CDK2/Cyclin E2
  IC50: ≤ 100 nM

## Cn1cc(S(=O)(=O)N2CC[C@H](Nc3ncc(C(F)(F)F)c(-c4cc(C(N)=O)ns4)n3)[C@H](F)C2)cn1 [Example 129, 5-(2-(((3R,4S)-3-fluoro-1-((1-methyl-1H-pyrazol-4-yl)sulfonyl)piperidin-4-yl)amino)-5-(trifluoromethyl)pyrimidin-4-yl)isothiazole-3-carboxamide]
OVCAR3 p-RB
  IC50: ≤ 100 nM
CDK2/Cyclin E2
  IC50: ≤ 100 nM

## CC(C)(O)Cc1sc(-c2nc(NC3CCN(S(C)(=O)=O)CC3)ncc2C(F)(F)F)cc1C(N)=O [Example 130, 2-(2-hydroxy-2-methylpropyl)-5-(2-((1-(methylsulfonyl)piperidin-4-yl)amino)-5-(trifluoromethyl)pyrimidin-4-yl)thiophene-3-carboxamide]
OVCAR3 p-RB
  IC50: 100 to 500 nM
CDK2/Cyclin E2
  IC50: ≤ 100 nM

## C[C@@H]1CN(S(=O)(=O)c2cn(C)cn2)CC[C@@H]1Nc1ncc(C(F)(F)F)c(-c2ncc(C(C)(C)O)s2)n1 [Example 133, 2-(2-(2-(((3R,4S)-3-methyl-1-((1-methyl-1H-imidazol-4-yl)sulfonyl)piperidin-4-yl)amino)-5-(trifluoromethyl)pyrimidin-4-yl)thiazol-5-yl)propan-2-ol]
OVCAR3 p-RB
  IC50: ≤ 100 nM
CDK2/Cyclin E2
  IC50: ≤ 100 nM

## CS(=O)(=O)N1CCC(Nc2ncc(C(F)(F)F)c(-c3ncc(C(O)C(F)F)s3)n2)CC1 (stereo not drawn) [Example 134, 2,2-difluoro-1-(2-(2-((1-(methylsulfonyl)piperidin-4-yl)amino)-5-(trifluoromethyl)pyrimidin-4-yl)thiazol-5-yl)ethan-1-ol]
OVCAR3 p-RB
  IC50: ≤ 100 nM
CDK2/Cyclin E2
  IC50: ≤ 100 nM

## CC(C)(O)Cc1cnc(-c2nc(N[C@@H]3CCN(S(C)(=O)=O)C[C@H]3F)ncc2C(F)(F)F)s1 [Example 135, 1-(2-(2-(((3R,4R)-3-fluoro-1-(methylsulfonyl)piperidin-4-yl)amino)-5-(trifluoromethyl)pyrimidin-4-yl)thiazol-5-yl)-2-methylpropan-2-ol]
OVCAR3 p-RB
  IC50: 100 to 500 nM
CDK2/Cyclin E2
  IC50: ≤ 100 nM

## Cn1cnc(S(=O)(=O)N2CC[C@H](Nc3ncc(C(F)(F)F)c(-c4ncc(CC(C)(C)O)s4)n3)[C@H](F)C2)c1 [Example 136, 1-(2-(2-(((3R,4S)-3-fluoro-1-((1-methyl-1H-imidazol-4-yl)sulfonyl)piperidin-4-yl)amino)-5-(trifluoromethyl)pyrimidin-4-yl)thiazol-5-yl)-2-methylpropan-2-ol]
OVCAR3 p-RB
  IC50: ≤ 100 nM
CDK2/Cyclin E2
  IC50: ≤ 100 nM

## CC(C)(O)Cc1cnc(-c2nc(N[C@H]3CCN(S(=O)(=O)c4cn[nH]c4)C[C@H]3F)ncc2C(F)(F)F)s1 [Example 137, 1-(2-(2-(((3R,4S)-1-((1H-pyrazol-4-yl)sulfonyl)-3-fluoropiperidin-4-yl)amino)-5-(trifluoromethyl)pyrimidin-4-yl)thiazol-5-yl)-2-methylpropan-2-ol]
OVCAR3 p-RB
  IC50: ≤ 100 nM
CDK2/Cyclin E2
  IC50: ≤ 100 nM

## C[C@@H]1CN(S(=O)(=O)c2cnn(C)c2)CC[C@@H]1Nc1ncc(C(F)(F)F)c(-c2ncc(C(O)C(F)F)s2)n1 (stereo partly drawn) [Example 138, 2,2-difluoro-1-(2-(2-(((3R,4S)-3-methyl-1-((1-methyl-1H-pyrazol-4-yl)sulfonyl)piperidin-4-yl)amino)-5-(trifluoromethyl)pyrimidin-4-yl)thiazol-5-yl)ethan-1-ol]
OVCAR3 p-RB
  IC50: ≤ 100 nM
CDK2/Cyclin E2
  IC50: ≤ 100 nM

## C[C@@H]1CN(S(=O)(=O)c2cn(C)cn2)CC[C@@H]1Nc1ncc(C(F)(F)F)c(-c2ncc(C(O)C(F)F)s2)n1 (stereo partly drawn) [Example 139, 2,2-difluoro-1-(2-(2-(((3R,4S)-3-methyl-1-((1-methyl-1H-imidazol-4-yl)sulfonyl)piperidin-4-yl)amino)-5-(trifluoromethyl)pyrimidin-4-yl)thiazol-5-yl)ethan-1-ol]
OVCAR3 p-RB
  IC50: ≤ 100 nM
CDK2/Cyclin E2
  IC50: ≤ 100 nM
